# In US20230183640A1, “METABOLIC INHIBITORS WITH EFFICACY FOR INHIBITING SULFIDE PRODUCTION IN HARSH ENVIRONMENTS” (MC (US) 3 LLC, priority 2020, published 2023):
# Assays:
# Assay type in all cases: cell-based
# [1] = tested on: Enterobacter aerogenes 13048; test: Log (Growth) efficacy in aerobic conditions, non-SRB bacteria
# Description: (§1) 24-hour cultures were made of ATCC Escherichia coli 8739, Pseudomonas aeruginosa 15442, Enterobacter aerogenes 13048, and Klebsiella pneumoniae 13883. The cultures were prepared by taking a loop of a pure bacterial colony and inoculating 10 mL of TSB. These were grown for 24 hours at 30° C.
# (§2) Following the 24-hour incubation, 600 microliters (μL) were taken from each culture and optical density (OD) was measured using a Thermofisher Spectronic 200 Spectrophotometer at 600 nm. Each culture was diluted to 0.05 OD600 in fresh Phosphate Buffered Saline (PBS). Using these cultures, two deep well plates were prepared. Edge wells were not used due to their inherent variability and evaporation of the media. Each of the components were added at their respective concentrations for a final volume of […] per well. In Table 8, the concentrations of the compound C1 used for the experiments are listed. Each experiment was done with at least three replicates for different treatments and non-treatment controls. Plates were then sealed with a titer-top and incubated in an incubator at 30° C.
# (§3) Enumerations were done at each time point, which included 0 hour, 1 hour, 4 hours and 24 hours. Enumeration plates were made to determine the log growth in each dosed sample. For this process, enumeration plates were prepared by adding 180 μL fresh TSB. 20 μL was taken from each well of the challenge plates and transferred to the enumeration plates using a 20-200 μL multichannel pipette. Enumeration plates were mixed three times using the multichannel pipette and serial diluted down the plate tenfold (20 μL into 180 μL). This serial dilution process was repeated for all challenge plate rows giving a total of 6 enumeration plates. These enumeration plates were read after 24-hours and by counting the number of turbid wells in a row.
# Escherichia coli 8739 = test: as above
# Description: as §1, §2, §3
# [2] = tested on: Klebsiella pneumoniae 13883; test: as above
# Description: as §1, §2, §3
# [3] = tested on: Pseudomonas aeruginosa 15442; test: as above
# Description: as §1, §2, §3
# [4] = tested on: sulfate reducing bacteria; test: Efficacy in inhibiting H2S production from sulfate reducing bacteria; conditions: anaerobic conditions
# Description: To understand the hydrogen sulfide inhibition efficacy of the N-hydroxycarboxamide compounds of the present invention, several compounds were tested. Some compounds that can be used in this H2S inhibiting composition are disclosed in Table 2. For the testing procedures, the compounds were dissolved in DMSO, resulting in a stock solution of about 8000-100000 ppm, which was subsequently diluted in 96-well plates or 10 mL serum vials containing media and selected culture to give varying concentrations from 0.09 to 1000 ppm of the compounds in final solution for efficacy testing.
# Strains of commonly found bacteria were used for testing the efficacy of the compounds, viz. Desulfovibrio alaskensis, Desulfovibrio longus and Desulfovibrio gabonensis. Media for the cultures was also prepared by using a standard method. The cultures were aseptically used and incubated under anaerobic conditions. Two well established methods were used for testing various compounds:
# The compounds C1, C12, C14, C15 and C16 were tested individually to understand each of their efficacies in inhibiting the H2S production from sulfate reducing bacteria, under standard temperature and pressure conditions. The efficacy of compounds C14 and C15 against hydrogen sulfide production are disclosed in Example 1, Tables 6 and 7.
smiles,measurement,setting,value
O=C(CN1C(=O)c2cccc3cccc(c23)C1=O)NO [C1],Log (Growth),"[1]; 0 hours, 6.25 PPM",7.667
same,Log (Growth),"[1]; 0 hours, 12.5 PPM",8.000
same,Log (Growth),"[1]; 0 hours, 25 PPM",7.333
same,Log (Growth),"[1]; 0 hours, 50 PPM",7.667
same,Log (Growth),"[1]; 0 hours, 100 PPM",7.000
same,Log (Growth),"[1]; 0 hours, 200 PPM",7.667
same,Log (Growth),"[1]; 1 hour, 6.25 PPM",7.667
same,Log (Growth),"[1]; 1 hour, 12.5 PPM",8.000
same,Log (Growth),"[1]; 1 hour, 25 PPM",7.333
same,Log (Growth),"[1]; 1 hour, 50 PPM",7.000
same,Log (Growth),"[1]; 1 hour, 100 PPM",7.333
same,Log (Growth),"[1]; 1 hour, 200 PPM",8.000
same,Log (Growth),"[1]; 4 hours, 6.25 PPM",7.667
same,Log (Growth),"[1]; 4 hours, 12.5 PPM",7.667
same,Log (Growth),"[1]; 4 hours, 25 PPM",7.667
same,Log (Growth),"[1]; 4 hours, 50 PPM",7.333
same,Log (Growth),"[1]; 4 hours, 100 PPM",8.000
same,Log (Growth),"[1]; 4 hours, 200 PPM",7.000
same,Log (Growth),"[1]; 24 hours, 6.25 PPM",6.667
same,Log (Growth),"[1]; 24 hours, 12.5 PPM",7.333
same,Log (Growth),"[1]; 24 hours, 25 PPM",7.000
same,Log (Growth),"[1]; 24 hours, 50 PPM",6.667
same,Log (Growth),"[1]; 24 hours, 100 PPM",7.000
same,Log (Growth),"[1]; 24 hours, 200 PPM",7.333
same,Log (Growth),"Escherichia coli 8739; 0 hours, 6.25 PPM",7.000
same,Log (Growth),"Escherichia coli 8739; 0 hours, 12.5 PPM",6.667
same,Log (Growth),"Escherichia coli 8739; 0 hours, 25 PPM",7.000
same,Log (Growth),"Escherichia coli 8739; 0 hours, 50 PPM",7.333
same,Log (Growth),"Escherichia coli 8739; 0 hours, 100 PPM",7.000
same,Log (Growth),"Escherichia coli 8739; 0 hours, 200 PPM",7.000
same,Log (Growth),"Escherichia coli 8739; 1 hour, 6.25 PPM",7.000
same,Log (Growth),"Escherichia coli 8739; 1 hour, 12.5 PPM",8.000
same,Log (Growth),"Escherichia coli 8739; 1 hour, 25 PPM",7.333
same,Log (Growth),"Escherichia coli 8739; 1 hour, 50 PPM",6.333
same,Log (Growth),"Escherichia coli 8739; 1 hour, 100 PPM",6.333
same,Log (Growth),"Escherichia coli 8739; 1 hour, 200 PPM",6.333
same,Log (Growth),"Escherichia coli 8739; 4 hours, 6.25 PPM",7.000
same,Log (Growth),"Escherichia coli 8739; 4 hours, 12.5 PPM",7.333
same,Log (Growth),"Escherichia coli 8739; 4 hours, 25 PPM",7.000
same,Log (Growth),"Escherichia coli 8739; 4 hours, 50 PPM",6.667
same,Log (Growth),"Escherichia coli 8739; 4 hours, 100 PPM",7.000
same,Log (Growth),"Escherichia coli 8739; 4 hours, 200 PPM",6.667
same,Log (Growth),"Escherichia coli 8739; 24 hours, 6.25 PPM",6.333
same,Log (Growth),"Escherichia coli 8739; 24 hours, 12.5 PPM",7.333
same,Log (Growth),"Escherichia coli 8739; 24 hours, 25 PPM",6.667
same,Log (Growth),"Escherichia coli 8739; 24 hours, 50 PPM",7.000
same,Log (Growth),"Escherichia coli 8739; 24 hours, 100 PPM",6.667
same,Log (Growth),"Escherichia coli 8739; 24 hours, 200 PPM",7.000
same,Log (Growth),"[2]; 0 hours, 6.25 PPM",7.667
same,Log (Growth),"[2]; 0 hours, 12.5 PPM",6.333
same,Log (Growth),"[2]; 0 hours, 25 PPM",6.667
same,Log (Growth),"[2]; 0 hours, 50 PPM",6.667
same,Log (Growth),"[2]; 0 hours, 100 PPM",6.667
same,Log (Growth),"[2]; 0 hours, 200 PPM",6.333
same,Log (Growth),"[2]; 1 hour, 6.25 PPM",6.333
same,Log (Growth),"[2]; 1 hour, 12.5 PPM",8.000
same,Log (Growth),"[2]; 1 hour, 25 PPM",6.333
same,Log (Growth),"[2]; 1 hour, 50 PPM",6.000
same,Log (Growth),"[2]; 1 hour, 100 PPM",7.333
same,Log (Growth),"[2]; 1 hour, 200 PPM",8.000
same,Log (Growth),"[2]; 4 hours, 6.25 PPM",7.667
same,Log (Growth),"[2]; 4 hours, 12.5 PPM",6.667
same,Log (Growth),"[2]; 4 hours, 25 PPM",6.667
same,Log (Growth),"[2]; 4 hours, 50 PPM",6.667
same,Log (Growth),"[2]; 4 hours, 100 PPM",7.000
same,Log (Growth),"[2]; 4 hours, 200 PPM",7.000
same,Log (Growth),"[2]; 24 hours, 6.25 PPM",7.333
same,Log (Growth),"[2]; 24 hours, 12.5 PPM",7.333
same,Log (Growth),"[2]; 24 hours, 25 PPM",6.000
same,Log (Growth),"[2]; 24 hours, 50 PPM",6.000
same,Log (Growth),"[2]; 24 hours, 100 PPM",7.000
same,Log (Growth),"[2]; 24 hours, 200 PPM",7.000
same,Log (Growth),"[3]; 0 hours, 6.25 PPM",7.333
same,Log (Growth),"[3]; 0 hours, 12.5 PPM",7.667
same,Log (Growth),"[3]; 0 hours, 25 PPM",7.333
same,Log (Growth),"[3]; 0 hours, 50 PPM",7.667
same,Log (Growth),"[3]; 0 hours, 100 PPM",8.000
same,Log (Growth),"[3]; 0 hours, 200 PPM",7.667
same,Log (Growth),"[3]; 1 hour, 6.25 PPM",7.000
same,Log (Growth),"[3]; 1 hour, 12.5 PPM",8.000
same,Log (Growth),"[3]; 1 hour, 25 PPM",7.667
same,Log (Growth),"[3]; 1 hour, 50 PPM",7.333
same,Log (Growth),"[3]; 1 hour, 100 PPM",8.000
same,Log (Growth),"[3]; 1 hour, 200 PPM",7.000
same,Log (Growth),"[3]; 4 hours, 6.25 PPM",7.000
same,Log (Growth),"[3]; 4 hours, 12.5 PPM",8.000
same,Log (Growth),"[3]; 4 hours, 25 PPM",7.000
same,Log (Growth),"[3]; 4 hours, 50 PPM",7.000
same,Log (Growth),"[3]; 4 hours, 100 PPM",7.667
same,Log (Growth),"[3]; 4 hours, 200 PPM",7.000
same,Log (Growth),"[3]; 24 hours, 6.25 PPM",7.333
same,Log (Growth),"[3]; 24 hours, 12.5 PPM",7.000
same,Log (Growth),"[3]; 24 hours, 25 PPM",7.333
same,Log (Growth),"[3]; 24 hours, 50 PPM",7.667
same,Log (Growth),"[3]; 24 hours, 100 PPM",8.000
same,Log (Growth),"[3]; 24 hours, 200 PPM",7.667
same,efficacy for inhibiting hydrogen sulfide production,[4],highest efficacy
